Assay results reported in PubChem BioAssay (NCI).
“And” between values parts separate entries of the source, which are not always exact repeats. Identical values can stand only once.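 All cell lines were grown in 96-well plates and treated with compound for 48 hours. Here, GI50 denotes the concentration required for 50% inhibition of growth. TGI marks complete inhibition of growth.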

Experiments:
Test in all cases: NCI-60 cell line screen, 48 h
SNB-19 CNS = tested on: SNB-19 CNS
ACHN renal = tested on: ACHN renal
DU-145 prostate = tested on: DU-145 prostate
SR leukemia = tested on: SR leukemia
SW-620 colon = tested on: SW-620 colon
A498 renal = tested on: A498 renal
HCT-116 colon = tested on: HCT-116 colon
UACC-62 melanoma = tested on: UACC-62 melanoma
MDA-MB-231 breast = tested on: MDA-MB-231 breast
PC-3 prostate = tested on: PC-3 prostate

Compound	GI50 (SNB-19 CNS)	TGI (SNB-19 CNS) [µM]	GI50 (ACHN renal)	TGI (ACHN renal) [µM]	GI50 (DU-145 prostate)	TGI (DU-145 prostate) [µM]	GI50 (SR leukemia)	TGI (SR leukemia) [µM]	GI50 (SW-620 colon)	TGI (SW-620 colon) [µM]	GI50 (A498 renal)	TGI (A498 renal)	GI50 (HCT-116 colon)	TGI (HCT-116 colon) [µM]	GI50 (UACC-62 melanoma)	TGI (UACC-62 melanoma) [µM]	GI50 (MDA-MB-231 breast)	TGI (MDA-MB-231 breast)	GI50 (PC-3 prostate)	TGI (PC-3 prostate) [µM]
O=C(COc1ccc(/C=C2\Oc3ccccc3C2=O)cc1)Nc1nc2c(s1)CCCC2	46.9 µM	> 100	17.4 µM	> 100	0.417 µM	27.4	0.59 µM	2.44	4.07 µM	> 100	30.6 µM	98.2 µM	9.94 µM	> 100	23.2 µM	> 100	0.709 µM	6.38 µM	16.8 µM	> 100
COc1ccc(C2SC(C)C(=O)N2NC(=O)C(O)c2ccccc2)cc1OC (centres undefined)	> 100 µM	> 100	> 100 µM	> 100	> 100 µM	> 100	> 100 µM	> 100	> 100 µM	> 100	> 100 µM	> 100 µM	> 100 µM	> 100	> 100 µM	> 100	> 100 µM	> 100 µM	> 100 µM	> 100
C/C=C(/COC(C)=O)C(=O)OC1C=C(C=O)C(C)(C)C=C1C (centres undefined)		> 100		> 100		> 100		> 100		> 100		> 100 µM		> 100		> 100		> 100 µM		> 100
CC1(C)CC(C)(C)C1=NNC(N)=O		> 100		> 100		> 100		> 100		> 100		> 100 µM		> 100		> 100		> 100 µM		> 100
COc1cccc(-n2ncc3c(N/N=C/c4ccncc4)ncnc32)c1	> 25 µM	> 25	0.985 µM	> 25	4.55 µM	> 25	2.12 µM	> 25	5.22 µM	> 25	0.326 µM		2.8 µM	> 25	4.28 µM	> 25	3.51 µM	> 25 µM	> 17.1 µM	> 25
C/C=C(\C)C(=O)O[C@H]1C=CC(=O)O[C@@H]1CC[C@H](O)[C@H](C)O	98.9 µM	> 100	33.4 µM	> 92.8	34 µM	> 100	4.7 µM	42.8	24 µM	57.6	> 100 µM	> 100 µM	21.4 µM	67.2	38.5 µM	> 73.9	52.2 µM	> 100 µM	> 86.2 µM	> 100
O=C(NC[C@H](O)CO)c1ccncc1Nc1ccc(I)cc1F	> 10 µM and 21.2 µM	> 100	> 2.47 µM and 6.98 µM	> 100	> 10 µM and 17.8 µM	> 100	> 10 µM and 52.4 µM	> 100	0.0144 µM and 0.0188 µM	> 100	0.03 µM and 0.0394 µM	0.417 µM and 0.517 µM	0.0556 µM and 0.104 µM	> 100	0.00248 µM and < 0.01 µM	0.0292	0.154 µM and 0.348 µM	> 10 µM and 46.7 µM	> 10 µM and 61 µM	> 100
O=c1nc2oc3ccc4ccccc4c3cc-2s1	6.73 µM	> 100	38.6 µM	> 100	11.5 µM	> 100	0.458 µM	> 100	1.05 µM	> 100	0.184 µM	7.86 µM	1.14 µM	> 100	1.22 µM	> 100	12.4 µM	> 100 µM	3.16 µM	> 100
Cc1ccc(S(=O)(=O)Nc2cccc3[nH]c(C(F)(F)F)nc23)cc1	0.972 µM	> 100	0.799 µM	> 60.6	1.2 µM	> 39.9	0.383 µM	22	0.382 µM	> 100	0.262 µM	1.82 µM	0.414 µM	> 100	0.62 µM	> 54	1.61 µM	22.5 µM	0.56 µM	> 68.8
C1CN(SSN2CCOCC2)CCO1	> 100 µM	> 100	81 µM	> 100	> 100 µM	> 100	48.9 µM	> 100	19.4 µM	42	> 100 µM	> 100 µM	20 µM	40.6	58.7 µM	> 100	92.8 µM	> 100 µM	25 µM	> 100
CCOc1ccccc1N=Nc1c(C)[nH]n(-c2nc(-c3ccccc3)cs2)c1=O	43.1 µM	> 100	42.3 µM	> 100	53.2 µM	> 100	> 100 µM	> 100	> 100 µM	> 100	23.5 µM	> 100 µM	52.3 µM	> 100	35.6 µM	> 100	44 µM	> 100 µM	34.7 µM	> 100
CC[C@H](CO)Nc1nc(NCc2ccccc2)n2ncc(C(C)C)c2n1	1.44 µM	12.3	0.808 µM	10.7	1.3 µM	9.52	0.249 µM	1.59	1.38 µM	5.56	1.25 µM	3.44 µM	0.51 µM	15	1.37 µM	5.5	2.37 µM	9.47 µM	0.927 µM	12.3
CN(C)c1ccc2c(c1)OC(N)=C(C#N)C2c1ccc2c(c1)CCO2 (centres undefined)	1.17 µM	> 100	0.0683 µM	> 67.1	0.229 µM	> 100	< 0.0198 µM	> 48.2	< 0.0294 µM	> 100	< 0.0272 µM	5.59 µM	< 0.0201 µM	8.52	< 0.0205 µM	21.9	0.419 µM	28.6 µM	0.0664 µM	> 100
COc1c2c(nc3ccccc13)-c1cc3c(c(=O)n1C2)COC(=O)C3(O)CC(=O)N1CCOCC1 (centres undefined)		83.6		14.7		17.7		17.5		> 100		46.4 µM		38.5		8.35		> 100 µM		> 100
C/C=C(/C)C(=O)O[C@H](C[C@@H](C)[C@H]1CC(c2ccoc2)OC1=O)[C@@]1(C)C(=O)CCC2O[C@]21C (some centres undefined)		> 100		> 100		> 100		> 100		> 100		> 100 µM		> 100		> 100		> 100 µM		> 100
CC1(C)C2C=CC1(C)C1(CC2)OCCO1 (centres undefined)		> 100		> 100		> 100		> 100		> 100		> 100 µM		> 100		> 100		> 100 µM		> 100
CCN(CC)Cc1ccc(Nc2nccc(-c3cnn4ncccc34)n2)cc1	0.0296 µM	> 25	0.00739 µM	> 25	0.012 µM	> 8.56	0.00795 µM		0.0136 µM	> 9.07	0.0144 µM	0.0452 µM	0.00984 µM	> 25	0.0188 µM	0.0694	0.0226 µM	> 25 µM	0.0184 µM	> 25
C=C(CO[Si](C)(C)C(C)(C)C)C(C)=O		> 100		> 71.4		> 100		> 31.6		38.9		> 100 µM		27		30.5		46.6 µM		98.5
O=C(/C=C/c1ccc([N+](=O)[O-])cc1)c1ccc2c3c(cccc13)CC2	3.36 µM	17.4	47.9 µM	> 100	4.23 µM	> 40.9	2.02 µM	24.9	2.34 µM	6.62	11.6 µM	43.5 µM	4.33 µM	25.7	> 48.4 µM	> 100	> 52.8 µM	> 100 µM	4.72 µM	> 100
Nc1nc(Nc2ccc(C3CCC(N4CCOCC4)CC3)cc2)nn1-c1ccccn1 (centres undefined)	7.38 µM	> 100	4.26 µM	> 100	6.4 µM	> 100	0.366 µM	3.29	3.4 µM	> 100	5 µM	20.1 µM	2.92 µM	20.7	7.27 µM	> 88.3	5.34 µM	> 100 µM	5.76 µM	> 100
Cn1cc(C2=C(c3cccc(OCC(O)CO)c3)C(=O)NC2=O)c2ccccc21 (centres undefined)	> 25 µM	> 25	> 25 µM	> 25	> 25 µM	> 25	> 25 µM	> 25	> 25 µM	> 25	> 25 µM	> 25 µM	> 25 µM	> 25	> 25 µM	> 25	> 25 µM	> 25 µM	> 25 µM	> 25
CCCCN(CCCC)c1ccc(C(=N)c2ccc(N(CCCC)CCCC)cc2)cc1	0.468 µM	1.91	0.402 µM	1.48	0.651 µM	1.79	0.287 µM	1.04	0.306 µM	1.29	1.24 µM	2.56 µM	0.339 µM	1.31	0.369 µM	1.5	0.759 µM	2.06 µM	0.296 µM	1.03
O=C(Nc1ccc(Cl)cc1)Nc1ccc(Nc2nncc3ccccc23)cc1	3.67 µM	19	1.12 µM	7.12	3.17 µM	26.9	3.89 µM	23.4	3.16 µM	18.6	3.79 µM	18.8 µM	2.46 µM	12	0.958 µM	7.97	3.4 µM	15.9 µM	2.32 µM	11
CS[C@]12C(=O)C[C@@]3(C)[C@@H](CC[C@]3(O)C(=O)CO)[C@@H]1CCC1=CC(=O)CC[C@@]12C		> 100		> 100		> 100		> 100		> 100		> 100 µM		> 100		> 100		> 100 µM		> 100
O=C1c2c(O)cccc2C(C2OC(CO)C(O)C(O)C2O)c2cc(CO)cc(O)c21 (centres undefined)		> 100		> 100		> 100	> 100 µM	> 100		> 100		> 100 µM		> 100		> 100		> 100 µM		> 100
